Measurements taken from patent publication US20180318263A1 (The Regents of the University of Colorado, a body corporate, priority 2016, published 2018).
“Also recorded” adds a separate entry of the source.

What was measured:
LNCaP CPT1A-KD clones = assay: growth of LNCaP CPT1A-KD clones with enzalutamide; format: cell-based, human; details: enzalutamide (MDV3100) versus control clone
Method: (C) Relative growth of LNCaP-KD clones compared to control (NTshRNA) with Enza treatment. *p<0.001, compared to control treatment. ap<0.01 compared to control clone. (NTshRNA—left; CPT1Ash1—center; and CPT1 Ash2 at each timepoint for FIGS. 6A and 6B.)
Data is normalized to the vehicle (0 μM, no drug) treatment. Data represents mean±SD.
Etomoxir targets CPT1. […] It is possible that the decrease in AR observed with etomoxir is due to off-targets effects of the drug (besides CPT1), and/or the cells may need to be studied at earlier time points when apoptotic and ER stress mechanisms have not been set in motion.

LNCaP-Enza-Res cells = assay: growth of enzalutamide-resistant LNCaP cells (MTS); format: cell-based, human; details: for growth of enzalutamide-resistant LNCaP cells versus parental: single fat oxidation inhibitor, 48 hours
Source text: FIG. 16 is a set of four graphs split over two pages. […] Data is normalized to the vehicle treatment (no drugs). […] Data is normalized to the vehicle treatment (no drugs). […] Data is normalized to the vehicle treatment (no drugs). […] Data is normalized to the vehicle treatment (no drugs).
FIG. 17 is a pair of graphs showing the effects of treatment on the indicated cells. […] Data is normalized to the vehicle treatment (no drugs). […] Both concentrations are in microMolar (μM).
(§1) Parental LNCaP and VCaP cells treated with vehicle were used as their corresponding controls.

TRAMPC1 cells = assay: mouse TRAMPC1 cell growth / clonogenic assay; format: cell-based; details: for sensitivity to each drug treatment alone: TRAMPC1, enzalutamide (5 μM); for sensitivity of mouse prostate cancer cells: FIG. 12
Source text: FIG. 10 is an image and a graph showing mouse TRAMPC1 cell growth assay. […] Representative crystal violet stains are shown above graph.
These cells are important model because they can be placed in syngeneic C57B1 mice with a complete immune system.
This cell line from mouse PCa allows the evaluation of treatments in vivo, using immune-competent […] mice, which are syngenic with the TRAMPC1 cells.

[1] = tested on: enzalutamide-resistant PCa cells; assay: colony formation of enzalutamide-resistant versus parental PCa cells; format: cell-based
Source text: Colony formation was examined after 2 weeks by crystal violet stain and analyzed with image J.

PCa cells = assay: 14C-lipid oxidation in PCa cells; format: cell-based
PCa cell lines = assay: growth/viability of PCa cell lines with etomoxir; format: cell-based, human; details: etomoxir (75 μM in FIG. 2D), p<0.01
Source text: (§2) (E) Stain of xenografts slices with phospho-4EBP1 antibody. (F) Western blot of LNCaP cells treated with vehicle (“V”) or etomoxir (“E”), C-Casp3=cleaved-caspase 3. (G) Putative diagram of mTOR signaling pathway.

BPH-1 and WPMY-1 cells = assay: viability of benign prostate cells with etomoxir; format: cell-based; details: etomoxir 75 μM
Source text: as §2

VCaP tumor = assay: VCaP xenograft tumor growth in mice treated with etomoxir; format: in vivo; details: VCaP xenografts, etomoxir 40 mg/kg/day for 21 days, p<0.05
Source text: as §2

mTOR = assay: ceramides and mTOR signaling after etomoxir; format: cell-based
Source text: as §2

primary PCa cells = primary PCa cells derived from prostatectomies treated with etomoxir; format: cell-based, human; details: data not shown
Source text: The effects of etomoxir in primary PCa cells derived from prostatectomies carried out at University of Colorado hospital were examined.

LNCaP cells = assay: ER stress markers in etomoxir-treated LNCaP cells; format: cell-based, human
Source text: (C) Phosphorylation of the α-subunit of the translation initiation factor eIF2 (p-eIF2a) and expression of LC3 cleavage marker of autophagy. (D) Agarose gel showing the spliced (activated, 447 bp) XBP1 factor that regulates the response to ER stress.

androgen receptor (AR) = assay: AR gene expression and Western blot in LNCaP cells; format: cell-based, human; details: etomoxir 48 hours, p<0.05
Method: (A) Relative AR gene expression after vehicle (“V”) or etomoxir (“E”) treatment in LNCaP cells. ARfl=full length AR; ARv7=AR variant 7; AR total=all AR isoforms; PSA=prostate specific antigen; NKX3.1=Homeodomain-containing transcription factor regulated by androgens. […] (B) Western blot of full length AR and ARV7 variant in LNCaP cells treated with etomoxir for 48 hours.

VCaP-Enza-Res cells = assay: growth of enzalutamide-resistant VCaP cells; format: cell-based, human; details: single fat oxidation inhibitor, 48 hours
Source text: as §1

[2] = tested on: tumors of human cells resistant to enzalutamide; assay: enzalutamide-resistant human tumors in nude mice treated with ranolazine; format: in vivo; details: injections started on day 5

`CNC(=O)c1ccc(N2C(=S)N(c3ccc(C#N)c(C(F)(F)F)c3)C(=O)C2(C)C)cc1F` [enzalutamide] was tested, and the “cell growth of CPT1A-deficient LNCaP clones” value (LNCaP CPT1A-KD clones) was “more sensitive to enzalutamide treatment; also recorded: synergistic effect on cell growth”, the “growth in the presence of enzalutamide” value (LNCaP-Enza-Res cells; LNCaP-enzalutamide resistant cells versus parental, p<0.001) was “can grow in the presence of enzalutamide” and the “sensitivity to each drug treatment alone” value (TRAMPC1 cells) was “not very sensitive”. For the same compound, the “growth in the presence of enzalutamide compared to parental controls” value [1] was “grow better in the presence of enzalutamide”.

For `C1CCC(C(CC2CCCCN2)C2CCCCC2)CC1` (stereo not shown) [perhexiline], the “sensitivity of mouse prostate cancer cells” value (TRAMPC1 cells) was “sensitive”.

In the case of `CCOC(=O)[C@@]1(CCCCCCOc2ccc(Cl)cc2)CO1` [etomoxir], the 14C-lipid oxidation (PCa cells) is reported as “able to block 14C-lipid oxidation”, the “growth / viability of PCa cells” value (PCa cell lines) is reported as “decrease their growth and died” and the “growth / viability of PCa cells” value (PCa cell lines; listed as Etomoxir) is reported as “decreases the viability”. The “growth effect in benign cells” value (BPH-1 and WPMY-1 cells) was “not seen”, the tumor growth (VCaP tumor) was “Decreased VCaP tumor growth; also recorded: also observed” and the “mTOR and downstream effectors S6K and 4EBP-1” value (mTOR; etomoxir treatment) was “decreased mTOR and its downstream effectors S6K and 4EBP-1”. The palmitate-containing ceramides (mTOR; etomoxir treatment (not shown)) was “increased palmitate-containing ceramides”, the glucose uptake (primary PCa cells) was “momentary increase in glucose uptake” and the “viability compared to matched non-cancerous cells” value (primary PCa cells) was “concomitant decrease in viability”. The “autophagy markers (LC3)” value (LNCaP cells) was “increase in autophagy markers (LC3)”, the “markers of ER stress” value (LNCaP cells; ATF4, GADD34, GRP78, CHOP, p<0.001) was “increase in markers of ER stress” and the “expression of androgen receptor (AR) and its variant forms” value (androgen receptor (AR)) was “significant decrease”. The “sensitivity of mouse prostate cancer cells” value (TRAMPC1 cells) was “sensitive”.

`COc1ccccc1OCC(O)CN1CCN(CC(=O)Nc2c(C)cccc2C)CC1` (stereo not shown) [ranolazine] was tested, and the “growth of enzalutamide-resistant LNCaP cells versus parental” value (LNCaP-Enza-Res cells) was “more sensitive to ranolazine than their corresponding parental controls”, the “growth of enzalutamide-resistant LNCaP cells versus parental” value (LNCaP-Enza-Res cells; listed as Ranolazine) was “inhibits growth” and the “growth of enzalutamide-resistant VCaP cells versus parental” value (VCaP-Enza-Res cells) was “more sensitive to ranolazine than their corresponding parental controls”. For the same compound, the “growth of enzalutamide-resistant VCaP cells versus parental” value (VCaP-Enza-Res cells; listed as Ranolazine) was “inhibits growth”, the “sensitivity of mouse prostate cancer cells” value (TRAMPC1 cells) was “sensitive” and the “sensitivity to each drug treatment alone” value (TRAMPC1 cells) was “not very sensitive”. The “sensitivity of enzalutamide-resistant tumors” value [2] was “show signs of sensitivity”.
